Seven compounds from ChEMBL document CHEMBL4229547, “Design, synthesis and biological mechanisms research on 1,2,3-triazole derivatives of Jiyuan Oridonin A” (Bioorg Med Chem, 2018) can be followed below.

pIC50: −log10 of the molar value.

By pIC50 is commonly meant the IC50 on a negative log10 scale, so that one unit is a factor of ten. The low end stands for a high IC50, the high end for a low IC50.

The first assay relates to SMMC-7721. Kind of assay: Antiproliferative activity against human SMMC7721 cells after 48 hrs by MTT assay. The conditions noted are these: SMMC-7721, 48 h. The format is functional, cell-based. In general terms: Tetrazolium dyes change colour on reduction, which living cells bring about.
Turning to `C=C1C(=O)[C@]23[C@H](O)[C@H]1CC[C@H]2[C@@]12CO[C@]3(O)[C@@H](O)[C@@H]1C(C)(C)CC[C@@H]2O` [ORIDONIN], the negative-log IC50 (pIC50) was 4.27.

`C=C1C(=O)[C@]23[C@H](O)[C@H]1C[C@H](O)[C@H]2[C@]12CCCC(C)(C)[C@H]1C[C@H]3O[C@@H]2OCCc1cn(Cc2ccc([N+](=O)[O-])cc2)nn1`: the pIC50 is 5.42.

For `C=C1C(=O)[C@]23[C@H](O)[C@H]1C[C@H](O)[C@H]2[C@]12CCCC(C)(C)[C@H]1C[C@H]3O[C@@H]2OCCc1cn(Cc2ccc(C)cc2)nn1`, the pIC50 was 5.25.

`C=C1C(=O)[C@]23[C@H](O)[C@H]1C[C@H](O)[C@H]2[C@]12CCCC(C)(C)[C@H]1C[C@H]3OC2OCCN=[N+]=[N-]` (single isomer, unassigned): the pIC50 is 5.00.

`C=C1C(=O)[C@]23[C@H](O)[C@H]1C[C@H](O)[C@H]2[C@]12CCCC(C)(C)[C@H]1C[C@H]3O[C@@H]2OCCc1cn(Cc2ccccc2)nn1`: the pIC50 is 5.24.

`C=C1C(=O)[C@]23[C@H](O)[C@H]1C[C@H](O)[C@H]2[C@]12CCCC(C)(C)[C@H]1C[C@H]3O[C@@H]2OCCn1cc(-c2ccccc2)nn1` showed a negative-log IC50 (pIC50) of 5.22.

`C=C1C(=O)[C@]23[C@H](O)[C@H]1C[C@H](O)[C@H]2[C@]12CCCC(C)(C)[C@H]1C[C@H]3O[C@@H]2OCCc1cn(Cc2cc(OC)c(OC)c(OC)c2)nn1`: the pIC50 was 5.04.

Another assay concerns MGC-803. Briefly: Antiproliferative activity against human MGC803 cells after 48 hrs by MTT assay. The conditions noted are these: MGC-803, 48 h. The format is functional, cell-based.
With `C=C1C(=O)[C@]23[C@H](O)[C@H]1CC[C@H]2[C@@]12CO[C@]3(O)[C@@H](O)[C@@H]1C(C)(C)CC[C@@H]2O` [ORIDONIN], the pIC50 is 4.48.

Consider `C=C1C(=O)[C@]23[C@H](O)[C@H]1C[C@H](O)[C@H]2[C@]12CCCC(C)(C)[C@H]1C[C@H]3O[C@@H]2OCCc1cn(Cc2ccc(C)cc2)nn1`, for which the pIC50 is 5.41.

Compound `C=C1C(=O)[C@]23[C@H](O)[C@H]1C[C@H](O)[C@H]2[C@]12CCCC(C)(C)[C@H]1C[C@H]3OC2OCCN=[N+]=[N-]` (single isomer, unassigned) gave a pIC50 of 4.92.

Consider `C=C1C(=O)[C@]23[C@H](O)[C@H]1C[C@H](O)[C@H]2[C@]12CCCC(C)(C)[C@H]1C[C@H]3O[C@@H]2OCCn1cc(-c2ccccc2)nn1`, for which the pIC50 is 5.02.

The subject of another assay is PC-3. Kind of assay: Antiproliferative activity against human PC3 cells after 48 hrs by MTT assay. The format is functional, cell-based. Conditions: PC-3, 48 h.
In the case of `C=C1C(=O)[C@]23[C@H](O)[C@H]1CC[C@H]2[C@@]12CO[C@]3(O)[C@@H](O)[C@@H]1C(C)(C)CC[C@@H]2O` [ORIDONIN], the pIC50 is 4.56.

Turning to `C=C1C(=O)[C@]23[C@H](O)[C@H]1C[C@H](O)[C@H]2[C@]12CCCC(C)(C)[C@H]1C[C@H]3O[C@@H]2OCCc1cn(Cc2ccc(C)cc2)nn1`, the pIC50 was 5.31.

Compound `C=C1C(=O)[C@]23[C@H](O)[C@H]1C[C@H](O)[C@H]2[C@]12CCCC(C)(C)[C@H]1C[C@H]3OC2OCCN=[N+]=[N-]` (single isomer, unassigned) showed a pIC50 of 4.91.

Regarding `C=C1C(=O)[C@]23[C@H](O)[C@H]1C[C@H](O)[C@H]2[C@]12CCCC(C)(C)[C@H]1C[C@H]3O[C@@H]2OCCn1cc(-c2ccccc2)nn1`, the pIC50 is 4.95.

The next assay relates to MCF7. Briefly: Antiproliferative activity against human MCF7 cells after 48 hrs by MTT assay. Conditions: MCF7, 48 h. The format is functional, cell-based.
In turn, `C=C1C(=O)[C@]23[C@H](O)[C@H]1CC[C@H]2[C@@]12CO[C@]3(O)[C@@H](O)[C@@H]1C(C)(C)CC[C@@H]2O` [ORIDONIN] showed a pIC50 of 4.13.

The compound `C=C1C(=O)[C@]23[C@H](O)[C@H]1C[C@H](O)[C@H]2[C@]12CCCC(C)(C)[C@H]1C[C@H]3O[C@@H]2OCCc1cn(Cc2ccc([N+](=O)[O-])cc2)nn1` showed a pIC50 of 5.19.

Compound `C=C1C(=O)[C@]23[C@H](O)[C@H]1C[C@H](O)[C@H]2[C@]12CCCC(C)(C)[C@H]1C[C@H]3O[C@@H]2OCCc1cn(Cc2ccc(C)cc2)nn1` had a pIC50 of 5.10.

In turn, `C=C1C(=O)[C@]23[C@H](O)[C@H]1C[C@H](O)[C@H]2[C@]12CCCC(C)(C)[C@H]1C[C@H]3OC2OCCN=[N+]=[N-]` (single isomer, unassigned) had a pIC50 of 5.80.

The compound `C=C1C(=O)[C@]23[C@H](O)[C@H]1C[C@H](O)[C@H]2[C@]12CCCC(C)(C)[C@H]1C[C@H]3O[C@@H]2OCCc1cn(Cc2ccccc2)nn1` showed a pIC50 of 5.02.

`C=C1C(=O)[C@]23[C@H](O)[C@H]1C[C@H](O)[C@H]2[C@]12CCCC(C)(C)[C@H]1C[C@H]3O[C@@H]2OCCn1cc(-c2ccccc2)nn1` had a pIC50 of 5.05.

Take `C=C1C(=O)[C@]23[C@H](O)[C@H]1C[C@H](O)[C@H]2[C@]12CCCC(C)(C)[C@H]1C[C@H]3O[C@@H]2OCCc1cn(Cc2cc(OC)c(OC)c(OC)c2)nn1`: the pIC50 was 5.06.

The subject of another assay is EC9706. Briefly: Antiproliferative activity against human EC9706 cells after 48 hrs by MTT assay. The conditions noted are these: EC9706, 48 h. The format is functional, cell-based.
Consider `C=C1C(=O)[C@]23[C@H](O)[C@H]1CC[C@H]2[C@@]12CO[C@]3(O)[C@@H](O)[C@@H]1C(C)(C)CC[C@@H]2O` [ORIDONIN], for which the negative-log IC50 (pIC50) was 4.42.

On to `C=C1C(=O)[C@]23[C@H](O)[C@H]1C[C@H](O)[C@H]2[C@]12CCCC(C)(C)[C@H]1C[C@H]3O[C@@H]2OCCc1cn(Cc2ccc([N+](=O)[O-])cc2)nn1`, for which the pIC50 was 5.11.

For the compound `C=C1C(=O)[C@]23[C@H](O)[C@H]1C[C@H](O)[C@H]2[C@]12CCCC(C)(C)[C@H]1C[C@H]3O[C@@H]2OCCc1cn(Cc2ccc(C)cc2)nn1`, the negative logarithm of the IC50 (pIC50) is 5.21.

The compound `C=C1C(=O)[C@]23[C@H](O)[C@H]1C[C@H](O)[C@H]2[C@]12CCCC(C)(C)[C@H]1C[C@H]3OC2OCCN=[N+]=[N-]` (single isomer, unassigned) gave a pIC50 of 5.06.

Compound `C=C1C(=O)[C@]23[C@H](O)[C@H]1C[C@H](O)[C@H]2[C@]12CCCC(C)(C)[C@H]1C[C@H]3O[C@@H]2OCCc1cn(Cc2ccccc2)nn1` gave a pIC50 of 5.12.

Turning to `C=C1C(=O)[C@]23[C@H](O)[C@H]1C[C@H](O)[C@H]2[C@]12CCCC(C)(C)[C@H]1C[C@H]3O[C@@H]2OCCn1cc(-c2ccccc2)nn1`, the negative logarithm of the IC50 (pIC50) is 5.27.

`C=C1C(=O)[C@]23[C@H](O)[C@H]1C[C@H](O)[C@H]2[C@]12CCCC(C)(C)[C@H]1C[C@H]3O[C@@H]2OCCc1cn(Cc2cc(OC)c(OC)c(OC)c2)nn1` gave a pIC50 of 5.02.

A further assay relates to HGC-27. Kind of assay: Antiproliferative activity against human HGC27 cells after 48 hrs by MTT assay. The format is functional, cell-based. The conditions noted are these: HGC-27, 48 h.
As to `C=C1C(=O)[C@]23[C@H](O)[C@H]1CC[C@H]2[C@@]12CO[C@]3(O)[C@@H](O)[C@@H]1C(C)(C)CC[C@@H]2O` [ORIDONIN], the pIC50 is 4.49.

The subject of another assay is ECa-109 cell line. Briefly: Antiproliferative activity against human ECA109 cells after 48 hrs by MTT assay. The format is functional, cell-based. Conditions: ECa-109, 48 h.
`C=C1C(=O)[C@]23[C@H](O)[C@H]1CC[C@H]2[C@@]12CO[C@]3(O)[C@@H](O)[C@@H]1C(C)(C)CC[C@@H]2O` [ORIDONIN]: the pIC50 is 4.50.

Compound `C=C1C(=O)[C@]23[C@H](O)[C@H]1C[C@H](O)[C@H]2[C@]12CCCC(C)(C)[C@H]1C[C@H]3O[C@@H]2OCCc1cn(Cc2ccc([N+](=O)[O-])cc2)nn1` had a pIC50 of 5.38.

Compound `C=C1C(=O)[C@]23[C@H](O)[C@H]1C[C@H](O)[C@H]2[C@]12CCCC(C)(C)[C@H]1C[C@H]3O[C@@H]2OCCc1cn(Cc2ccc(C)cc2)nn1` had a negative-log IC50 (pIC50) of 5.67.

In turn, `C=C1C(=O)[C@]23[C@H](O)[C@H]1C[C@H](O)[C@H]2[C@]12CCCC(C)(C)[C@H]1C[C@H]3OC2OCCN=[N+]=[N-]` (single isomer, unassigned) had a negative-log IC50 (pIC50) of 5.22.

As for `C=C1C(=O)[C@]23[C@H](O)[C@H]1C[C@H](O)[C@H]2[C@]12CCCC(C)(C)[C@H]1C[C@H]3O[C@@H]2OCCc1cn(Cc2ccccc2)nn1`, the pIC50 was 5.45.

Consider `C=C1C(=O)[C@]23[C@H](O)[C@H]1C[C@H](O)[C@H]2[C@]12CCCC(C)(C)[C@H]1C[C@H]3O[C@@H]2OCCn1cc(-c2ccccc2)nn1`, for which the pIC50 was 5.37.

As to `C=C1C(=O)[C@]23[C@H](O)[C@H]1C[C@H](O)[C@H]2[C@]12CCCC(C)(C)[C@H]1C[C@H]3O[C@@H]2OCCc1cn(Cc2cc(OC)c(OC)c(OC)c2)nn1`, the pIC50 is 5.35.
